This note sets out measurements from patent US5879902A, “Diagnostic methods and kits for the evaluation of the sympathetic nervous system function” (Neuro-Biotech Inc., priority 1997, dated 1999).

Several values for one entry are separate records, joined by “and”; a condition that tells them apart may be missing. Identical values can stand only once. Counter-ions that a name gives are not always drawn.

Common to all, as to type: biochemical
The target in data set [1] is T1, dopamine-β-hydroxylase (Homo sapiens, UniProt P09172).
T1 sequence (P09172 40-617 limits assumed): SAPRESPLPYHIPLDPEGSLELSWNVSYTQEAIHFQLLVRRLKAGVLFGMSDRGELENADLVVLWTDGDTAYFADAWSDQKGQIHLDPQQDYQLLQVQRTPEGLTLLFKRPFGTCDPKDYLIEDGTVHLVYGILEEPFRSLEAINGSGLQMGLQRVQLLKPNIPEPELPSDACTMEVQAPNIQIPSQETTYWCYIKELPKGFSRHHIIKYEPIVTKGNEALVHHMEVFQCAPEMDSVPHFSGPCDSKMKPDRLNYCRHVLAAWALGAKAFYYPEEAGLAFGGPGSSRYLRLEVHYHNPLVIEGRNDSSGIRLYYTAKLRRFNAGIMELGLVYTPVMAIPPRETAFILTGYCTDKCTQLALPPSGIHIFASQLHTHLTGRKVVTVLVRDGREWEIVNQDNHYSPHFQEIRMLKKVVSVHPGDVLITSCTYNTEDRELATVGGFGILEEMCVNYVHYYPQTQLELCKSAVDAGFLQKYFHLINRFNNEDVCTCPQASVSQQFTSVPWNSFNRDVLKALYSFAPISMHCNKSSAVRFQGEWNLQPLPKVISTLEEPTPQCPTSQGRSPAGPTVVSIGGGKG
The experiment in a line: Specific DBH activity in unpurified human serum (octopamine formed from tyramine, spectrophotometric). Particulars: for % Control (DBH activity with the named component omitted) / Activity (DBH enzyme activity with the named component omitted): named ingredient omitted from reaction mixture, pool of 25 normal human serum; for Activity (DBH enzyme activity with the named component omitted): 37° C., mean ± SEM of at least 10 determinations; for decrease in enzyme activity on omission of the component from the incubation medium: component omitted; for saturation point (concentration saturating the enzyme activity): 20 μL human serum, tyramine varied at 10 mM ascorbate, ascorbate varied at 20 mM tyramine; for apparent Vmax: pH 5.0, Woolf's graphical method. The method, then: (§1) The kinetic parameters and biochemical properties were done on a pool of 25 subjects randomly distributed between males and females. An appropriate aliquot of serum was taken as enzyme source and diluted in ice-cold deionized water to a final volume of 400 μL, prior the preincubation period. For individual measurements of DBH enzyme activity, 20 μL of human serum was routinely used. For the ultrafiltration method, an aliquot of a pool of serum was passed through a DIAFLO™ Ultrafilter membrane, type YM100, and 40 μL of the ultrafiltrate was used to measure the enzyme activity (FIG. 9).
The specific DBH activity was determined by the method described by Roberge and Charbonneau (Roberge AG et al., Nutr Res, 1985, 5:57-63). The preincubation mixture contained 0.2M sodium acetate buffer (pH 5), 15 mM N-ethylmaleimide (NEM) and the enzyme source (from the serum sample) and was carried out at 25° C. for 10 min in an atmosphere of air using a metabolic shaker (Dubnoff). To the preincubated enzymatic source were added to a final volume of 1 mL: 10 mM fumarate, […], 2500 units catalase and 1 mM pargyline, as monoamide oxidasae inhibitor. Blanks and internal standards were set up in the same manner and contained 20 mM octopamine instead of the enzyme source. The incubation was started with 20 mM tyramine and conducted at 37° C. for 30 min in an atmosphere of air using a metabolic shaker (Dubnoff). The reaction was stopped on ice by adding 300 μL of 3M trichloroacetic acid to each tube and immediately centrifuged at 2500 g of at 4° C. for 10 min. The supernatant was decanted on a DOWEX™ 50×4-400 resin column and the acid eluted with 3M NH4 OH. The octopamine formed was derived to p-hydroxybenzaldehyde by periodate cleavage which was isolated by successive solvent extractions with ether and ammonia. The last aqueous phase was assayed by a dual-wavelenght spectrophotometer (333-360 nm). Specific activity was expressed […] of octopamine formed per mL per min. Recovery of octopamine added to the blank incubation mixture was 90±2%. L-tyramine was used as substrate and an aliquot of unpurified serum was taken as the enzyme source, usually 20 μL.
Apparent Michaelis constant (Km) and apparent maximum velocity (Vmax) were determined following the Woolf's graphical procedure and the usual method of Lineweaver and Burk. Statistical estimation related to enzyme kinetics was done according to Wilkinson.

The target of data set [2] is T1, dopamine-β-hydroxylase. The data set is described as follows: DBH activity in ultrafiltrate of human serum (DIAFLO YM100 membrane). More on the design: an aliquot of a pool of serum was passed through a DIAFLO™ Ultrafilter membrane, type YM100; from tissue; host or cells: ultrafiltrate of pooled human serum. Particulars: with the named substance in the medium (15 mM NEM; copper up to 4 μM). The procedure:
as §1
(§2) The specific DBH activity was determined by the method described by Roberge and Charbonneau (Roberge AG et al., Nutr Res, 1985, 5:57-63). The preincubation mixture contained 0.2M sodium acetate buffer (pH 5), 15 mM N-ethylmaleimide (NEM) and the enzyme source (from the serum sample) and was carried out at 25° C. for 10 min in an atmosphere of air using a metabolic shaker (Dubnoff). To the preincubated enzymatic source were added to a final volume of 1 mL: 10 mM fumarate, […], 2500 units catalase and 1 mM pargyline, as monoamide oxidasae inhibitor. […]
The relationship between copper and NEM in the medium was studied in an aliquot of serum passed through a DIAFLO™ Ultrafilter membrane, type YM100, and the enzyme activity was measured in the ultrafiltrate. […]

Data set [3] deals with T1, dopamine-β-hydroxylase. The experiment in a line: DBH activity in human EDTA-treated blood. The method, then: (§3) The specific DBH activity was determined by the method described by Roberge and Charbonneau (Roberge AG et al., Nutr Res, 1985, 5:57-63). The preincubation mixture contained 0.2M sodium acetate buffer (pH 5), 15 mM N-ethylmaleimide (NEM) and the enzyme source (from the serum sample) and was carried out at 25° C. for 10 min in an atmosphere of air using a metabolic shaker (Dubnoff). To the preincubated enzymatic source were added to a final volume of 1 mL: 10 mM fumarate, […], 2500 units catalase and 1 mM pargyline, as monoamide oxidasae inhibitor. Blanks and internal standards were set up in the same manner and contained 20 mM octopamine instead of the enzyme source. The incubation was started with 20 mM tyramine and conducted at 37° C. for 30 min in an atmosphere of air using a metabolic shaker (Dubnoff). The reaction was stopped on ice by adding 300 μL of 3M trichloroacetic acid to each tube and immediately centrifuged at 2500 g of at 4° C. for 10 min. […]
(§4) Apparent Michaelis constant (Km) and apparent maximum velocity (Vmax) were determined following the Woolf's graphical procedure and the usual method of Lineweaver and Burk. […]
(§5) In FIG. 7A, the specific DBH enzyme activity was measured in human blood treated with EDTA, a copper chelator, in respect to pH dependence, to copper content added in the incubation medium and to kinetic parameters. […]

Substrate in data set [4]: NCCc1ccc(O)cc1
The experiment in a line: DBH activity in human EDTA-treated blood. Particulars: other: EDTA-treated blood, pH 5.8, Lineweaver and Burk. The method, then: as §3, §4, §5

Substrate in data set [5]: NCCc1ccc(O)cc1
The experiment in a line: Specific DBH activity in unpurified human serum (octopamine formed from tyramine, spectrophotometric). The following applies: other: human serum, pH 5.0, Woolf's graphical method. The method, then:
as §1, §2, §4

For `O=C(O)/C=C/C(=O)O` [Furnarate, disodium fumarate], on dopamine-β-hydroxylase [1], the “% Control (DBH activity with the named component omitted)” value (“% Control” for short) is on record as 88% and the “Activity (DBH enzyme activity with the named component omitted)” value is given as 47.5 ± 1.00 nmol of octopamine formed per mL per min. Besides, on dopamine-β-hydroxylase [1] (whatever the concentrations used, up to 40 mM), the “increase in enzyme activity by addition of fumarate” value was determined as 12%.
For the molecule `CCN1C(=O)C=CC1=O` [N-ethylmaleimide (NEM), N-ethylmaleimide], the “enzyme activity in ultrafiltrate” value on dopamine-β-hydroxylase [2] is listed as 52±0.7 nmol of octopamine formed per mg of protein per hour. On dopamine-β-hydroxylase [1] (human serum), the “decrease in enzyme activity on omission of the component from the incubation medium” value was 36% and 66%. In addition, at dopamine-β-hydroxylase [1], the “% Control” value came to 66% and the “Activity (DBH enzyme activity with the named component omitted)” value is given as 35.6 ± 0.39 nmol of octopamine formed per mL per min.
Consider `O=C1O[C@H]([C@@H](O)CO)C(O)=C1O` [ascorbate, ascorbic acid], for which, at dopamine-β-hydroxylase [1], the “saturation point (concentration saturating the enzyme activity)” value came out at 10 mM, the “% Control” value stood at 4% and the “Activity (DBH enzyme activity with the named component omitted)” value is 2.2 ± 0.19 nmol of octopamine formed per mL per min. On dopamine-β-hydroxylase [1] (human serum), the “decrease in enzyme activity on omission of the component from the incubation medium” value stood at 96%, the “Km value lower than for tyramine (fold)” value worked out at 10 times and the “apparent Vmax” value is 56 nmol of octopamine formed per mL per min.
For `[Cu]` [copper], at dopamine-β-hydroxylase [3] (copper from 0 to 100 μM in the medium), the “effect of exogenous copper on EDTA inhibition” value was “progressively reversed”. For the same molecule, at dopamine-β-hydroxylase [2], the “enzyme activity in ultrafiltrate” value is 51±0.56 nmol of octopamine formed per mg of protein per hour. In addition, the “maximum decrease in enzyme activity” value on dopamine-β-hydroxylase [1] (20 μM exogenous copper, with 15 mM NEM in the medium) was 90%. Further, the “exogenous copper content above which enzyme activity decreases significantly” value at dopamine-β-hydroxylase [1] (with 15 mM NEM in the medium) was “higher than 2 μM”. In addition, on dopamine-β-hydroxylase [1] (without NEM in the medium), the “exogenous copper concentration above which enzyme activity decreases significantly” value was “higher than 4 μM”.
`NCCc1ccc(O)cc1` [tyramine, L-tyramine]: the Vmax at dopamine-β-hydroxylase [3] (EDTA-treated blood, pH 5.8, Lineweaver and Burk) is recorded as 38.5 nmol of octopamine formed per mL per min. For the same molecule, on dopamine-β-hydroxylase [1], the “saturation point (concentration saturating the enzyme activity)” value worked out at 20 mM. Also, the “apparent Vmax” value on dopamine-β-hydroxylase [1] (human serum) is 72 nmol of octopamine formed per mL per min.

B1: dopamine-β-hydroxylase (Homo sapiens) (protein)
chain: T1 sequence (P09172 40-617 limits assumed)
notes: from tissue; host or cells: human serum, unpurified (pool of 25 subjects; also individual subjects)
Broadly, the Km is the concentration of substrate that gives half-maximal velocity. As to B1, the Michaelis-Menten constant (Km) turned out to be 2.4 mM in data set [4] and 8 mM in data set [5].

B2: Catalase: beef liver catalase, added for peroxide degradation (protein, UniProt P00432 2-527, looked up)
Catalase: ADNRDPASDQMKHWKEQRAAQKPDVLTTGGGNPVGDKLNSLTVGPRGPLLVQDVVFTDEMAHFDRERIPERVVHAKGAGAFGYFEVTHDITRYSKAKVFEHIGKRTPIAVRFSTVAGESGSADTVRDPRGFAVKFYTEDGNWDLVGNNTPIFFIRDALLFPSFIHSQKRNPQTHLKDPDMVWDFWSLRPESLHQVSFLFSDRGIPDGHRHMNGYGSHTFKLVNANGEAVYCKFHYKTDQGIKNLSVEDAARLAHEDPDYGLRDLFNAIATGNYPSWTLYIQVMTFSEAEIFPFNPFDLTKVWPHGDYPLIPVGKLVLNRNPVNYFAEVEQLAFDPSNMPPGIEPSPDKMLQGRLFAYPDTHRHRLGPNYLQIPVNCPYRARVANYQRDGPMCMMDNQGGAPNYYPNSFSAPEHQPSALEHRTHFSGDVQRFNSANDDNVTQVRTFYLKVLNEEQRKRLCENIAGHLKDAQLFIQKKAVKNFSDVHPEYGSRIQALLDKYNEEKPKNAVHTYVQHGSHLSAREKANL
Turning to B2, the “catalase amount up to which enzyme activity increases (then plateau till 4000 units)” value in the data set with dopamine-β-hydroxylase [1] (human serum) is recorded as 2000 units. Also, in the data set with dopamine-β-hydroxylase [1], the “% Control” value was 10% and the “Activity (DBH enzyme activity with the named component omitted)” value is recorded as 5.6 ± 0.45 nmol of octopamine formed per mL per min.
